Here are results for 1 compound from patent US7727736B2, “Soluble phospholipids for use in clotting factor assays” (The University of North Carolina at Chapel Hill, priority 2003, dated 2010).

Test [1] deals with T1, prothrombinase complex (FXa-FVa) (Homo sapiens, UniProt P00742+P12259).
T1 construct: Human prothrombin and factor Xa; tissue Hematologic Technologies Inc. (factor Xa only); factor Xa purchased
As to the kind of experiment: Kinetics of prothrombin and MzIIa activation by C6PS- or membrane-assembled prothrombinase. The class given is biochemical. On the procedure:
Fluorescence Stopped-Flow Measurements. The rates of thrombin formation from either MzIIa or Pre2 (with equimolar fragment 1.2), or of thrombin plus MzIIa formation from human prothrombin, were estimated from the time-dependent fluorescence change of DAPA bound to the activation products. […] Stopped-flow measurements were performed using an SLM-Aminco Milliflow® stopped flow reactor (Spectronic Instruments, Inc., Rochester, N.Y.) attached to the SLM 48000® spectrofluorometer (Spectronic Instruments) as described (Wu, et al. (2002) supra; Weinreb, et al. (2003) supra). […] The calculation of rates from measurements of initial fluorescence intensity (F0) and intensity at the completion of the reaction (F∞) is well-established (Nesheim and Mann (1983) supra; Wu, et al. (2002) supra).
Rapid Chemical Quench Measurements. […] Prothrombin solution in 50 mM Tris, 150 mM NaCl, 5 mM Ca^2+, 0.6% PEG (to limit thrombin adsorption to micro-plates), pH 7.5, was loaded into one sample loop, and pre-assembled prothrombinase complex (factor concentrations same as in stopped flow fluorescence studies) in the same buffer was loaded into another sample loop. […]

Another test has as its target T2, factor IXa (Homo sapiens, UniProt P00740).
T2 construct: intrinsic tryptophan fluorescence of factor IXa
As to the kind of experiment: Amidolytic activity of factor IXa with increasing C6PS. The class given is biochemical. The conditions noted are these: 300 nM factor IXa, substrate Leu-PHG-Arg-pNA-AcOH; read-out: Kd from amidolytic activity of factor IXa. The method, then:
The assay was conducted in the presence of 1 mM Leu-PHG-Arg-pNA.AcOH and increasing concentrations of C6PS.

T1 sequence (P00742 41-179 limits assumed): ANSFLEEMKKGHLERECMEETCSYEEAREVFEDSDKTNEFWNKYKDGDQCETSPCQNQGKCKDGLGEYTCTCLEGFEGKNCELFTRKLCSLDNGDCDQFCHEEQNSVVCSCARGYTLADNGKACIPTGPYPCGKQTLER
T1 sequence (P00742 235-488 limits assumed): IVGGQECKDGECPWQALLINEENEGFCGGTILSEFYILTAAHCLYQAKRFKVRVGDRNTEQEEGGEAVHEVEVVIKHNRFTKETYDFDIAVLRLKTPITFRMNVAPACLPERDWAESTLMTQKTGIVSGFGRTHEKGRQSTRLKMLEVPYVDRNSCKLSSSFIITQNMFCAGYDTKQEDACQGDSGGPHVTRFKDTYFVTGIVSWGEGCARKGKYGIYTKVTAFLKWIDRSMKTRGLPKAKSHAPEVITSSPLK
T1 sequence (P12259 29-737 limits assumed): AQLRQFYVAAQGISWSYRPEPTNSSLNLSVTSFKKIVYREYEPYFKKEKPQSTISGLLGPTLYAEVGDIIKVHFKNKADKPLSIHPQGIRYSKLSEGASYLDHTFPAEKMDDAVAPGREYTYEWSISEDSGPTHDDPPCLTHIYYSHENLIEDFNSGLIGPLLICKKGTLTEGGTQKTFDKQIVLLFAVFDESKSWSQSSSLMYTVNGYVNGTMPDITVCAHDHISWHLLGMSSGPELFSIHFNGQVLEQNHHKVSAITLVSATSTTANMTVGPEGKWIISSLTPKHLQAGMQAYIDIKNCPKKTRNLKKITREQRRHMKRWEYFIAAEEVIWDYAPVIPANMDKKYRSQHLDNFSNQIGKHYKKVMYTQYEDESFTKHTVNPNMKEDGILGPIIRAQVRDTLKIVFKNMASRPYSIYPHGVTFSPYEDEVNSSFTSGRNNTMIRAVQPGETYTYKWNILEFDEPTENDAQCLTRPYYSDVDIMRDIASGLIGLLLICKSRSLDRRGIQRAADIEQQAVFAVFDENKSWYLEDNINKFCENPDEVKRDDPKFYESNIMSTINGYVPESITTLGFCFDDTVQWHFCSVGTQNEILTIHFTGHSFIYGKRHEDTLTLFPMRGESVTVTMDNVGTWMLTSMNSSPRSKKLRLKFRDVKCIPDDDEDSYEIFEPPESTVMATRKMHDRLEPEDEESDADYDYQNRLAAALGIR
T1 sequence (P12259 1574-2224 limits assumed): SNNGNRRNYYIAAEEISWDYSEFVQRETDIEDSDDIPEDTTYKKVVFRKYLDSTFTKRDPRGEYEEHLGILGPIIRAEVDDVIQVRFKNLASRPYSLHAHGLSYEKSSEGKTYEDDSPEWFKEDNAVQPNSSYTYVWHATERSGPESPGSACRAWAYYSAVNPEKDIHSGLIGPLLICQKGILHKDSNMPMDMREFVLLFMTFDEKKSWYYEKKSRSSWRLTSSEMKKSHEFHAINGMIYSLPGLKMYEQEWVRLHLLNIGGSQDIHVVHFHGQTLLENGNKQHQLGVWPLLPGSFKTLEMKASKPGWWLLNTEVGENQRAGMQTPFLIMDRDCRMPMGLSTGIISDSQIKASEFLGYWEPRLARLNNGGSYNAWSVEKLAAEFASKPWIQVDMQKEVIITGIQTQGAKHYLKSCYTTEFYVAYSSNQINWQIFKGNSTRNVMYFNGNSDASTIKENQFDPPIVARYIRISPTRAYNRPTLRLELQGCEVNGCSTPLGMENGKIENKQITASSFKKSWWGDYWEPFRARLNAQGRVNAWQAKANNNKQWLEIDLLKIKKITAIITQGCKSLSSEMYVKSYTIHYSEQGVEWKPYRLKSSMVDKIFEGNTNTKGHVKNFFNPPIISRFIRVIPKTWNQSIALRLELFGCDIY
T2 sequence (P00740 47-191 limits assumed): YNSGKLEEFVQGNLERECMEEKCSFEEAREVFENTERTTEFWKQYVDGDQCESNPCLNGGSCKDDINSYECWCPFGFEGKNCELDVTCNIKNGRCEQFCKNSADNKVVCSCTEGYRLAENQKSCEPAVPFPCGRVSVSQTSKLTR
T2 sequence (P00740 227-461 limits assumed): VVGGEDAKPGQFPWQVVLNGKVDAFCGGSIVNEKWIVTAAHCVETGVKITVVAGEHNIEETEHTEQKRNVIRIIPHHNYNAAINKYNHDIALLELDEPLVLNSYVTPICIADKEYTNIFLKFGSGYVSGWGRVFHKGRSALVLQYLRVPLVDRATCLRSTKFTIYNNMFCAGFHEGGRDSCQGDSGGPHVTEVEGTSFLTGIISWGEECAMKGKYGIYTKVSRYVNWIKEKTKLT

Consider `CCCCCC(=O)OC[C@H](COP(=O)(O)OC[C@H](N)C(=O)O)OC(=O)CCCCC` [C6PS, 1,2-dicaproyl-sn-glycero-3-phospho-L-serine], for which the “fraction of prothrombin converted directly (channeled) to thrombin” value in test [1] (400 μM C6PS, FXa 1 nM, FVa2 5 nM) came out at 58%. In addition, the “activation by C6PS-assembled complex relative to literature membrane complex” value in test [1] (C6PS with FVa2 vs membrane with FVa) was “an order of magnitude faster”. For the same compound, the Kd at factor IXa was determined as 130 µM.

One may read the Kd as the concentration at which binding is half-saturated.
